Values after ≈ are worked out from the molar mass of the structure shown.
How the values were obtained:
Assay in all cases: MIC, broth microdilution (NCCLS)
Format in all cases: cell-based
[1] = test system: S. pneumoniae* GC4465 (Clinical); conditions: Streptococcus pneumoniae, Mueller-Hinton II broth, 18-22 hours at 35° C.
Outline: (§1)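 Serial antibiotic dilutions in Mueller-Hinton II broth were inoculated to 10^5 CFU/ml. Plates were incubated 18-22 hours at 35° C. in ambient air.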

[2] = test system: E. coli GC4560 (IMP mutant); conditions: Escherichia coli
Outline: as §1

[3] = test system: S. pyogenes* GC4563 (Clinical); conditions: Streptococcus pyogenes, Mueller-Hinton II broth, 18-22 hours at 35° C.
Outline: as §1

[4] = test system: S. aureus GC1131 (Clinical); conditions: Staphylococcus aureus, Mueller-Hinton II broth, 18-22 hours at 35° C.
Outline: as §1

[5] = test system: C. albicans GC3066 ATCC (Control); conditions: Candida albicans, Mueller-Hinton II broth, 18-22 hours at 35° C.
[6] = test system: E. coli GC4559 (parent GC4560); conditions: Escherichia coli, Mueller-Hinton II broth, 18-22 hours at 35° C.
Outline: as §1

E. coli GC1073 (tet(B)) = conditions: Escherichia coli
Outline: as §1

[7] = test system: S. pneumoniae* GC1894 (Clinical); conditions: Streptococcus pneumoniae, Mueller-Hinton II broth, 18-22 hours at 35° C.
Outline: as §1

[8] = test system: M. catarrhalis* GC6907 (Clinical); conditions: Moraxella catarrhalis, Mueller-Hinton II broth, 18-22 hours at 35° C.
Outline: as §1

[9] = test system: S. aureus GC1079 (tet(K)); conditions: Staphylococcus aureus, Mueller-Hinton II broth, 18-22 hours at 35° C.
Outline: as §1

E. coli GC2270 (tet(M)) = conditions: Escherichia coli
Outline: as §1

[10] = test system: H. influenzae<> GC6896 (ATCC Control); conditions: Haemophilus influenzae, Mueller-Hinton II broth, 18-22 hours at 35° C.
Outline: as §1

[11] = test system: S. aureus GC6466 (tet(M)); conditions: Staphylococcus aureus, Mueller-Hinton II broth, 18-22 hours at 35° C.
Outline: as §1

[12] = test system: S. aureus GC4536 (Smith MP -In Vivo); conditions: Staphylococcus aureus, Mueller-Hinton II broth, 18-22 hours at 35° C.
Outline: as §1

[13] = test system: E. coli GC2203 (ATCC Control); conditions: Escherichia coli, Mueller-Hinton II broth, 18-22 hours at 35° C.
Outline: as §1

[14] = test system: E. faecalis GC2242 (Van-resistant); conditions: Enterococcus faecalis, Mueller-Hinton II broth, 18-22 hours at 35° C.
Outline: as §1

[15] = test system: E. faecalis GC2267 (tet(L) + (M) + (S)); conditions: Enterococcus faecalis
Outline: as §1

[16] = test system: E. faecalis GC4555 (ATCC Control); conditions: Enterococcus faecalis, Mueller-Hinton II broth, 18-22 hours at 35° C.
Outline: as §1

[17] = test system: S. aureus GC2216 (ATCC Control); conditions: Staphylococcus aureus, Mueller-Hinton II broth, 18-22 hours at 35° C.
Outline: as §1

[18] = test system: S. aureus GC6467 (tet(M) + (K)); conditions: Staphylococcus aureus
Outline: as §1

Row | Compound | MIC [1] [µg/mL] | MIC [2] [µg/mL] | MIC [3] [µg/mL] | MIC [4] [µg/mL] | MIC [5] [µg/mL] | MIC [6] [µg/mL] | MIC (E. coli GC1073 (tet(B))) [µg/mL] | MIC [7] [µg/mL] | MIC [8] [µg/mL] | MIC [9] [µg/mL] | MIC (E. coli GC2270 (tet(M))) [µg/mL] | MIC [10] [µg/mL] | MIC [11] [µg/mL] | MIC [12] [µg/mL] | MIC [13] [µg/mL] | MIC [14] [µg/mL] | MIC [15] [µg/mL] | MIC [16] [µg/mL] | MIC [17] [µg/mL] | MIC [18] [µg/mL]
1 | CN(C)c1ccc(-c2nc3cc(N(C)C)c4c(c3o2)C(=O)C2=C(O)[C@]3(O)C(=O)C(C(N)=O)=C(O)[C@@H](N(C)C)[C@@H]3C[C@@H]2C4)cc1 [Example 8, (6aR,7aS,8S,11aS)-5,8-bis(dimethylamino)-2-[4-(dimethylamino)phenyl]-9,11a,12-trihydroxy-11,13-dioxo-6,6a,7,7a,8,11,11a,13-octahydrotetraceno[2,1-d][1,3]oxazole-10-carboxamide] | 32 (≈ 53.2 µM) | 16 (≈ 26.6 µM) | 16 (≈ 26.6 µM) | 8 (≈ 13.3 µM) | > 64 | > 64 | > 64 | 16 (≈ 26.6 µM) | 64 (≈ 106 µM) | 16 (≈ 26.6 µM) | > 64 | > 64 | 16 (≈ 26.6 µM) | 16 (≈ 26.6 µM) | > 64 | 8 (≈ 13.3 µM) | 16 (≈ 26.6 µM) | 32 (≈ 53.2 µM) | 8 (≈ 13.3 µM) | –
2 | CN(C)c1cc2nc(-c3ccc(OCc4ccccc4)cc3)oc2c2c1C[C@H]1C[C@H]3[C@H](N(C)C)C(O)=C(C(N)=O)C(=O)[C@@]3(O)C(O)=C1C2=O [Example 11, (6aR,7aS,8S,11aS)-2-[4-(benzyloxy)phenyl]-5,8-bis(dimethylamino)-9,11a,12-trihydroxy-11,13-dioxo-6,6a,7,7a,8,11,11a,13-octahydrotetraceno[2,1-d](1,3]oxazole-10-carboxamide] | 32 (≈ 48.1 µM) | > 64 | 32 (≈ 48.1 µM) | 32 (≈ 48.1 µM) | > 64 | > 64 | > 64 | 32 (≈ 48.1 µM) | 32 (≈ 48.1 µM) | 64 (≈ 96.3 µM) | > 64 | > 64 | 64 (≈ 96.3 µM) | 64 (≈ 96.3 µM) | > 64 | 64 (≈ 96.3 µM) | > 64 | 64 (≈ 96.3 µM) | 64 (≈ 96.3 µM) | –
3 | CN(C)c1cc2nc(-c3ccsc3)oc2c2c1C[C@H]1C[C@H]3[C@H](N(C)C)C(O)=C(C(N)=O)C(=O)[C@@]3(O)C(O)=C1C2=O [Example 17, (6aR,7aS,8S,11aS)-5,8-bis(dimethylamino)-9,11a,12-trihydroxy-11,13-dioxo-2-thien-3-yl-6,6a,7,7a,8,11,11a,13-octahydrotetraceno[2,1-d][1,3]oxazole-10-carboxamide] | 32 (≈ 56.7 µM) | 4 (≈ 7.08 µM) | 16 (≈ 28.3 µM) | 8 (≈ 14.2 µM) | > 64 | > 64 | > 64 | 32 (≈ 56.7 µM) | 16 (≈ 28.3 µM) | 8 (≈ 14.2 µM) | > 64 | > 64 | 8 (≈ 14.2 µM) | 8 (≈ 14.2 µM) | > 64 | 8 (≈ 14.2 µM) | 16 (≈ 28.3 µM) | 8 (≈ 14.2 µM) | 8 (≈ 14.2 µM) | –
4 | CC(=O)OCc1ccc(-c2nc3cc(N(C)C)c4c(c3o2)C(=O)C2=C(O)[C@]3(O)C(=O)C(C(N)=O)=C(O)[C@@H](N(C)C)[C@@H]3C[C@@H]2C4)o1 [Example 21, {5-[(6aR,7aS,8S,11aS)-10-(aminocarbonyl)-5,8-bis(dimethylamino)-9,11a,12-trihydroxy-11,13-dioxo-6,6a,7,7a,8,11,11a,13-octahydrotetraceno[2,1-d][1,3]oxazol-2-yl]-2-furyl}methyl acetate] | > 64 | > 64 | > 64 | 64 | > 64 | > 64 | > 64 | > 64 | > 64 | 32 | > 64 | > 64 | 32 | 64 | > 64 | 32 | 64 | > 64 | 32 | –
5 | CN(C)c1cc2nc(/C=C/c3ccccc3F)oc2c2c1C[C@H]1C[C@H]3[C@H](N(C)C)C(O)=C(C(N)=O)C(=O)[C@@]3(O)C(O)=C1C2=O [Example 30, (6aR,7aS,8S,11aS)-5,8-bis(dimethylamino)-2-[(E)-2-(2-fluorophenyl)ethenyl]-9,11a,12-trihydroxy-11,13-dioxo-6,6a,7,7a,8,11,11a,13-octahydrotetraceno[2,1-d][1,3]oxazole-10-carboxamide] | 16 (≈ 26.6 µM) | 8 (≈ 13.3 µM) | 16 (≈ 26.6 µM) | 4 (≈ 6.64 µM) | > 64 | > 64 | > 64 | 16 (≈ 26.6 µM) | 32 (≈ 53.1 µM) | 8 (≈ 13.3 µM) | > 64 | > 64 | 8 (≈ 13.3 µM) | 8 (≈ 13.3 µM) | > 64 | 4 (≈ 6.64 µM) | – | 8 (≈ 13.3 µM) | 4 (≈ 6.64 µM) | –
6 | CN(C)c1cc2nc(-c3ccc(C(C)(C)C)cc3)oc2c2c1C[C@H]1C[C@H]3[C@H](N(C)C)C(O)=C(C(N)=O)C(=O)[C@@]3(O)C(O)=C1C2=O [Example 31, (6aR,7aS,8S,11aS)-2-(4-tert-butylphenyl)-5,8-bis(dimethylamino)-9,11a,12-trihydroxy-11,13-dioxo-6,6a,7,7a,8,11,11a,13-octahydrotetraceno[2,1-d][1,3]oxazole-10-carboxamide] | 8 (≈ 13 µM) | 4 (≈ 6.51 µM) | 8 (≈ 13 µM) | 8 (≈ 13 µM) | > 64 | > 64 | > 64 | 8 (≈ 13 µM) | 16 (≈ 26 µM) | 8 (≈ 13 µM) | > 64 | > 64 | 4 (≈ 6.51 µM) | 8 (≈ 13 µM) | > 64 | 8 (≈ 13 µM) | – | 8 (≈ 13 µM) | 8 (≈ 13 µM) | –
7 | CN(C)c1cc2nc(-c3ccncc3)oc2c2c1C[C@H]1C[C@H]3[C@H](N(C)C)C(O)=C(C(N)=O)C(=O)[C@@]3(O)C(O)=C1C2=O [Example 33, (6aR,7aS,8S,11aS)-5,8-bis(dimethylamino)-9,11a,12-trihydroxy-11,13-dioxo-2-pyridin-4-yl-6,6a,7,7a,8,11,11a,13-octahydrotetraceno[2,1-d][1,3]oxazole-10-carboxamide] | 16 (≈ 28.6 µM) | 16 (≈ 28.6 µM) | 8 (≈ 14.3 µM) | 16 (≈ 28.6 µM) | > 64 | > 64 | > 64 | 32 (≈ 57.2 µM) | 8 (≈ 14.3 µM) | 16 (≈ 28.6 µM) | > 64 | 32 (≈ 57.2 µM) | 32 (≈ 57.2 µM) | 16 (≈ 28.6 µM) | 64 (≈ 114 µM) | 16 (≈ 28.6 µM) | – | 16 (≈ 28.6 µM) | 16 (≈ 28.6 µM) | –
8 | CN(C)c1cc2nc(-c3cccnc3)oc2c2c1C[C@H]1C[C@H]3[C@H](N(C)C)C(O)=C(C(N)=O)C(=O)[C@@]3(O)C(O)=C1C2=O [Example 34, (6aR,7aS,8S,11aS)-5,8-bis(dimethylamino)-9,11a,12-trihydroxy-11,13-dioxo-2-pyridin-3-yl-6,6a,7,7a,8,11,11a,13-octahydrotetraceno[2,1-d][1,3]oxazole-10-carboxamide] | 32 (≈ 57.2 µM) | 32 (≈ 57.2 µM) | 32 (≈ 57.2 µM) | 32 (≈ 57.2 µM) | > 64 | > 64 | > 64 | 64 (≈ 114 µM) | 16 (≈ 28.6 µM) | 32 (≈ 57.2 µM) | > 64 | > 64 | 64 (≈ 114 µM) | 64 (≈ 114 µM) | > 64 | 32 (≈ 57.2 µM) | – | 32 (≈ 57.2 µM) | 32 (≈ 57.2 µM) | –
9 | CN(C)Cc1nc2cc(N(C)C)c3c(c2o1)C(=O)C1=C(O)[C@]2(O)C(=O)C(C(N)=O)=C(O)[C@@H](N(C)C)[C@@H]2C[C@@H]1C3 [Example 36, (6aR,7aS,8S,11aS)-5,8-bis(dimethylamino)-2-[(dimethylamino)methyl]-9,11a,12-trihydroxy-11,13-dioxo-6,6a,7,7a,8,11,11a,13-octahydrotetraceno[2,1-d][1,3]oxazole-10-carboxamide] | 1 (≈ 1.85 µM) | 1 (≈ 1.85 µM) | 1 (≈ 1.85 µM) | 4 (≈ 7.41 µM) | > 64 | 4 (≈ 7.41 µM) | – | 1 (≈ 1.85 µM) | 1 (≈ 1.85 µM) | 4 (≈ 7.41 µM) | – | 4 (≈ 7.41 µM) | 4 (≈ 7.41 µM) | 4 (≈ 7.41 µM) | 2 (≈ 3.71 µM) | 4 (≈ 7.41 µM) | – | 4 (≈ 7.41 µM) | 2 (≈ 3.71 µM) | 16 (≈ 29.7 µM)

Reference: patent publication US20080064667A1, “OXAZOLE DERIVATIVES OF TETRACYCLINES” (Wyeth, priority 2003, published 2008)
